In patent US20250262206A1, “USE OF TACHYKININ RECEPTOR 3 INHIBITÓR” (WUHAN UNIVERSITY, priority 2021, published 2025):
Read-outs that look alike come from different tables or passages of the source.

Experiments:
[1] = test system: C57BL/6J-APCMin/+ mice; experiment: Kidney damage caused by intestinal adenoma in C57BL/6J-APCMin/+ mice; format: in vivo, mouse; details: 10 mg/kg/day intraperitoneal, 9 days
Protocol: C57BL/6J-APCMin/+ mice are a mature mammalian intestinal adenoma model and are commonly used to study host consumption caused by tumors.
Methods: Male mice of C57BL/6J in the control group and C57BL/6J-APCMin/+ in the experimental group (7 mice in each group) were fed to 16 weeks of age under normal feeding conditions. When the mice in the experimental group began to lose weight, they were injected intraperitoneally with Fezolinetant (0, 10 mg/kg/day) for 9 consecutive days, and the body weight and urine output were measured, and the kidneys were stained to observe the tubular morphology.

[2] = test system: hot flashes in postmenopausal women; details: Phase 2 clinical trials; cited from earlier work
[3] = test system: Yki activated Drosophila (intestinal tumors); experiment: Drosophila ascites caused by yki intestinal tumors; format: in vivo; details: 100 μM in food, yki intestinal tumor Drosophila, 6 days / 8 days
Source text: Overexpression of the activated proto-oncogene yki in Drosophila intestinal stem cells can lead to malignant proliferation of intestinal stem cells, and then the formation of tumors. The formation of tumors seriously damages the secretory function of Drosophila Malpighian tubules, leading to the inability of circulating water in the Drosophila hemolymph to be drained out of the body, and the emergence of a severe ascites phenotype. Methods: Activated yki tumors (genotypes esg-Gal4, UAS-GFP, tub-Gal80TS/+; UAS-yki3SA/+) were induced in the Drosophila intestine by initiating gene expression at 29° C. Drosophilas were fed with food supplemented with DMSO, Fezolinetant (10 μM, 100 μM), and Pavinetant (10 μM, 100 μM), […], and compared with the control group (esg-Gal4, UAS-GFP, tub-Gal80TS/+), to observe phenotypes, detect intestinal tumor growth and systemic glycolipid changes, and count ascites ratios.

[4] = test system: polycystic ovary syndrome; details: Phase 2 clinical trials; cited from earlier work
[5] = molecular target: cytochrome P450-3A4 (Homo sapiens, UniProt P08684); details: cited from earlier work
[6] = test system: MFC tumor mice (C57BL/6J); experiment: Ascites and kidney damage caused by MFC forestomach cancer cells in mice; format: in vivo, mouse; details: 50 mg/kg/day intraperitoneal, 5 days
Protocol: MFC tumor (Mouse forestomach carcinoma), a common tumor that may cause ascites, colonizes the peritoneal cavity of mice. With their growth, the tumors may cause severe ascites accumulation and renal tubular damage in mice. Methods: C57BL/6J male mice, 4-6 weeks old. C57BL/6J mice in experimental group (6 mice in each group) were intraperitoneally injected with 1.5×10^7 MFC tumor cells, and 24 hours later, intraperitoneally injected with the inhibitor Pavinetant (0, 10, 50 mg/kg/day), and after 5 days of continuous administration, they were compared with the control group C57BL/6 (6 mice in each group). The body weight, ascites, and urine output were detected, and the kidneys were stained to observe the tubular morphology.

Chain of cytochrome P450-3A4 (P08684 whole entry): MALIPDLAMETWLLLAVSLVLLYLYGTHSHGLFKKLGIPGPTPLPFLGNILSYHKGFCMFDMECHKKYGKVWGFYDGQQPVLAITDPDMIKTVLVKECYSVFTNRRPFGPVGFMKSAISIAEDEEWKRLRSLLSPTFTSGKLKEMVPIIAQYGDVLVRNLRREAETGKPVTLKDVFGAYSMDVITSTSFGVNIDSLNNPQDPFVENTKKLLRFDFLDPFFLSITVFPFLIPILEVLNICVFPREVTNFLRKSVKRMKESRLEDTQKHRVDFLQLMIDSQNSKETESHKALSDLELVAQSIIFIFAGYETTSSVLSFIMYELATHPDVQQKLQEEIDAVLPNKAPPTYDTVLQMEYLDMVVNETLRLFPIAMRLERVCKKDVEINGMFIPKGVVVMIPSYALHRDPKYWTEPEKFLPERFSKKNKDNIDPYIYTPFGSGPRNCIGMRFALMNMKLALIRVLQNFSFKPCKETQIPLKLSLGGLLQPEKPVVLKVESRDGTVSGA

Compound | renal tubular damage (HE staining, tubular dilatation) [1] | urine output [1] | effect on hot flashes [2] | ascites in Drosophila [3] | blood glucose in Drosophila [3] | effect on polycystic ovary syndrome [4] | IC50 ([5]; midazolam, read-out: in vitro inhibitory IC50, cytochrome P450-3A4 enzyme activity, midazolam testing) | IC50 ([5]; testosterone, read-out: in vitro inhibitory IC50, cytochrome P450-3A4 enzyme activity, testosterone testing) | generation of ascites [6] | renal tubular lesions (renal tubular dilation) [6]
Cc1nsc(-c2nnc3n2CCN(C(=O)c2ccc(F)cc2)[C@@H]3C)n1 [Fezolinetant] | significantly restored | significantly restored | significant improvement effect | significantly reduce | normalize |  |  |  |  | 
CC[C@H](NC(=O)c1c(NS(C)(=O)=O)c(-c2ccccc2)nc2ccccc12)c1ccccc1 [Pavinetant] |  |  | significantly improves | significantly reduce | normalize | significantly improves | 7.1 µM | 19.8 µM | significantly inhibit | alleviate
